Columns and labels:
[1] = target: CDK1/Cyclin B1 (Homo sapiens, UniProt P06493); experiment: CDK1/Cyclin B1 Biochemical Assay (TR-FRET), 0.015 mM ATP; conditions: 0.15 μM Rb (Ser780)-biotin substrate, pH7.0, 60 min preincubation, 120 min reaction, room temperature
Protocol: (§1) CDK2/Cyclin E1 and CDK1/Cyclin B1 Biochemical Assays
(§2) Compounds disclosed herein were tested for inhibition of CDK2/Cyclin E1 or CDK1/Cyclin B1 kinase in an assay based on the time-resolved fluorescence-resonance energy transfer (TR-FRET) methodology. The assay was carried out in 384-well low volume black plates in a reaction mixture containing CDK2/Cyclin E1 or CDK1/Cyclin B1, 0.060 mM ATP for CDK2/Cyclin E1 or 0.015 mM ATP for CDK1/Cyclin B1, 0.15 μM Rb (Ser780)-biotin substrate and 0-10 μM compound in buffer containing 50 mM HEPES pH7.0, 0.02% NaN3, 0.01% BSA, 0.1 mM Orthovanadate, 50 mM MgCl2, 1 mM DTT and 0.005% Tween-20. The kinase was incubated with compound for 60 minutes at room temperature and the reaction was initiated by the addition of ATP and Rb (Ser780)-biotin substrate. After reaction at room temperature for 120 minutes, an equal volume of stop/detection solution was added according to the manufacture's instruction (Cisbio Bioassays). The stop/detection solution contained Streptavidin-XL665 and Anti-pRb (Ser780) mAb-Eu Cryptate in Detection buffer (Cisbio Bioassays). Plates were incubated at room temperature for 60 minutes, and the TR-FRET signals (ex337 nm, em665 nm/620 nm) were recorded on a PHERAstar FSX plate reader (BMG Labtech). The inhibition percentage of CDK2/Cyclin E1 or CDK1/Cyclin B1 kinase activity in presence of increasing concentrations of compounds was calculated based on the ratio of fluorescence at 665 nm to that at 620 nm. The IC50 for each compound was derived from fitting the data to the four-parameter logistic equation by Dotmatics.

[2] = target: CDK2/Cyclin E1 (Homo sapiens, UniProt P24941); experiment: CDK2/Cyclin E1 Biochemical Assay (TR-FRET), 0.060 mM ATP; conditions: 0.15 μM Rb (Ser780)-biotin substrate, pH7.0, 60 min preincubation, 120 min reaction, room temperature
Protocol: as §1, §2

Chain of CDK1/Cyclin B1 (P06493 whole entry): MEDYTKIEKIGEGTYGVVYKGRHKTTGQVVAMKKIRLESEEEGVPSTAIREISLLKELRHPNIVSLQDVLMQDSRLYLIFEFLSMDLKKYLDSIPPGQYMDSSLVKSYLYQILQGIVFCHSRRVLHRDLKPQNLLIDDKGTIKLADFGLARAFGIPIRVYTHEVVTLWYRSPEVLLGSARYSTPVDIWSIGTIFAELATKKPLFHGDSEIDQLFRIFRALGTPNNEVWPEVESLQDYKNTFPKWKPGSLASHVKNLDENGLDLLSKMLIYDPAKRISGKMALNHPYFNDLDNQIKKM
Chain of CDK1/Cyclin B1 (P14635 whole entry partner): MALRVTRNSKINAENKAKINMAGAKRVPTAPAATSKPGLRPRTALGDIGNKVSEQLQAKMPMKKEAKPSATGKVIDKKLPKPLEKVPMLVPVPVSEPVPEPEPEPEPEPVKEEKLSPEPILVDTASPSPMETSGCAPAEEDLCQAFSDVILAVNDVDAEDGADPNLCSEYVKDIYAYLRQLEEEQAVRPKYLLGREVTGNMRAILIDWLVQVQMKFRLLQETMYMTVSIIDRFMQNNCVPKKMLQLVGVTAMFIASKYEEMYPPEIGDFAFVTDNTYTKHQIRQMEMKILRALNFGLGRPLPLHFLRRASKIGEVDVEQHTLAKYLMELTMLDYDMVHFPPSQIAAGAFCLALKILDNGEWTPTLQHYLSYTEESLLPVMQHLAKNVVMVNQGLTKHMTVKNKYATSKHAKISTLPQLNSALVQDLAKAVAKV

SMILES | IC50 [1] [nM] | IC50 [2] [nM]
CC1(NC(=O)O[C@H]2CC[C@@H](c3cc(Nc4ccc5c(c4F)CNS5(=O)=O)n[nH]3)C2)CCC1 (relative stereo) [Example 163, cis-3-(3-((4-fluoro-1,1-dioxido-2,3-dihydrobenzo[d]isothiazol-5-yl)amino)-1H-pyrazol-5-yl)cyclopentyl(1-methylcyclobutyl)carbamate] | 18 | 0.8
[2H]C([2H])([2H])N1c2ccc(Nc3cc([C@@H]4CC[C@H](OC(=O)NC5(C)CC5)C4)[nH]n3)c(F)c2CS1(=O)=O (relative stereo) [Example 270, cis-3-(3-((4-fluoro-1-(methyl-d3)-2,2-dioxido-1,3-dihydrobenzo[c]isothiazol-5-yl)amino)-1H-pyrazol-5-yl)cyclopentyl(1-methylcyclopropyl)carbamate] | 37 | 1.7
CC[C@H](C)NC(=O)O[C@H]1CC[C@@H](c2cc(Nc3ccc4c(c3)CCS(=O)(=O)N4)n[nH]2)C1 (relative stereo) [Example 248, cis-3-(3-((2,2-dioxido-3,4-dihydro-1H-benzo[c][1,2]thiazin-6-yl)amino)-1H-pyrazol-5-yl)cyclopentyl((S)-sec-butyl)carbamate] | 49 | 2.6
CC(C)NC(=O)O[C@H]1CC[C@@H](c2cc(Nc3ccc4c(c3F)CN(C3CCC3)S4(=O)=O)n[nH]2)C1 (relative stereo) [Example 67, cis-3-(3-((2-cyclobutyl-4-fluoro-1,1-dioxido-2,3-dihydrobenzo[d]isothiazol-5-yl)amino)-1H-pyrazol-5-yl)cyclopentyl isopropylcarbamate] | 472 | 14
Cc1c(Nc2cc([C@@H]3CC[C@H](OC(=O)NC(C)C)C3)[nH]n2)ccc2c1CNS2(=O)=O (relative stereo) [Example 34, cis-3-(3-((4-methyl-1,1-dioxido-2,3-dihydrobenzo[d]isothiazol-5-yl)amino)-1H-pyrazol-5-yl)cyclopentyl isopropylcarbamate] | 81 | 1.9
CC(C)NC(=O)O[C@H]1CC[C@@H](c2cc(Nc3ccc4c(c3F)CN(C3CN(S(C)(=O)=O)C3)S4(=O)=O)n[nH]2)C1 (relative stereo) [Example 89, cis-3-(3-((4-fluoro-2-(1-(methylsulfonyl)azetidin-3-yl)-1,1-dioxido-2,3-dihydrobenzo[d]isothiazol-5-yl)amino)-1H-pyrazol-5-yl)cyclopentyl isopropylcarbamate] | 879 | 34
CC(C)NC(=O)O[C@H]1CC[C@@H](c2cc(Nc3ccc4c(c3F)CN(CC3CN(C)C3)S4(=O)=O)n[nH]2)C1 (relative stereo) [Example 106, cis-3-(3-((4-fluoro-2-((1-methylazetidin-3-yl)methyl)-1,1-dioxido-2,3-dihydrobenzo[d]isothiazol-5-yl)amino)-1H-pyrazol-5-yl)cyclopentyl isopropylcarbamate] | 631 | 6
COCC(C)NC(=O)O[C@H]1CC[C@@H](c2cc(Nc3ccc4c(c3F)CN(C)S4(=O)=O)n[nH]2)C1 (relative stereo) [Example 338, cis-3-(3-((4-fluoro-2-methyl-1,1-dioxido-2,3-dihydrobenzo[d]isothiazol-5-yl)amino)-1H-pyrazol-5-yl)cyclopentyl(1-methoxypropan-2-yl)carbamate] | 544 | 13
CC(C)NC(=O)O[C@H]1CC[C@@H](c2cc(Nc3cc(F)c4c(c3)CS(=O)(=O)N4)n[nH]2)C1 (relative stereo) [Example 279, cis-3-(3-((7-fluoro-2,2-dioxido-1,3-dihydrobenzo[c]isothiazol-5-yl)amino)-1H-pyrazol-5-yl)cyclopentyl isopropylcarbamate] | 43 | 0.7
CC(C)NC(=O)O[C@H]1CC[C@@H](c2cc(Nc3cc4c(cc3F)S(=O)(=O)N(C)C4)n[nH]2)C1 (relative stereo) [Example 45, cis-3-(3-((6-fluoro-2-methyl-1,1-dioxido-2,3-dihydrobenzo[d]isothiazol-5-yl)amino)-1H-pyrazol-5-yl)cyclopentyl isopropylcarbamate] | 6010 | 181
CC(C)NC(=O)O[C@H]1CC[C@@H](c2cc(Nc3cc(F)c4c(c3)NS(=O)(=O)C4)n[nH]2)C1 (relative stereo) [Example 311, cis-3-(3-((4-fluoro-2,2-dioxido-1,3-dihydrobenzo[c]isothiazol-6-yl)amino)-1H-pyrazol-5-yl)cyclopentyl isopropylcarbamate] | 158 | 6
COc1c(Nc2cc([C@@H]3CC[C@H](OC(=O)NC(C)C)C3)[nH]n2)ccc2c1S(=O)(=O)NC2(C)C (relative stereo) [Example 181, cis-3-(3-((7-methoxy-3,3-dimethyl-1,1-dioxido-2,3-dihydrobenzo[d]isothiazol-6-yl)amino)-1H-pyrazol-5-yl)cyclopentyl isopropylcarbamate] | 1250 | 58

Continued, values first:

IC50 [1] [nM] | IC50 [2] [nM] | SMILES
613 | 5.2 | CC[C@H](C)NC(=O)O[C@H]1CC[C@@H](c2cc(Nc3ccc4c(c3F)CN(C)S4(=O)=O)n[nH]2)C1 (single isomer, unassigned) [Example 123a]
45 | 1.2 | O=C(NC1CCCC1)O[C@H]1CC[C@@H](c2cc(Nc3ccc4c(c3)CS(=O)(=O)N4)n[nH]2)C1 (single isomer, unassigned) [Example 381a, cis-3-(3-((2,2-dioxido-1,3-dihydrobenzo[c]isothiazol-5-yl)amino)-1H-pyrazol-5-yl)cyclopentyl cyclopentylcarbamate]
457 | 5.2 | CC(C)NC(=O)O[C@H]1CC[C@@H](c2cc(Nc3cc4c(cc3F)NS(=O)(=O)C4)n[nH]2)C1 (single isomer, unassigned) [Example 292b, cis-3-(3-((6-fluoro-2,2-dioxido-1,3-dihydrobenzo[c]isothiazol-5-yl)amino)-1H-pyrazol-5-yl)cyclopentyl isopropylcarbamate]
341 | 4.9 | CC(C)NC(=O)O[C@H]1CC[C@@H](c2cc(Nc3ccc4c(c3F)CN(CCO)S4(=O)=O)n[nH]2)C1 (single isomer, unassigned) [Example 125b, cis-3-(3-((4-fluoro-2-(2-hydroxyethyl)-1,1-dioxido-2,3-dihydrobenzo[d]isothiazol-5-yl)amino)-1H-pyrazol-5-yl)cyclopentyl isopropylcarbamate]
170 | 7.1 | CCCNC(=O)O[C@H]1CC[C@@H](c2cc(Nc3ccc4c(c3F)C(C)NS4(=O)=O)n[nH]2)C1 (single isomer, unassigned) [Example 53d, cis-3-(3-((4-fluoro-3-methyl-1,1-dioxido-2,3-dihydrobenzo[d]isothiazol-5-yl)amino)-1H-pyrazol-5-yl)cyclopentyl propylcarbamate]
146 | 15.5 | CCCNC(=O)O[C@H]1CC[C@@H](c2cc(Nc3ccc4c(c3F)CS(=O)(=O)N4CCO)n[nH]2)C1 (single isomer, unassigned) [Example 272a, cis-3-(3-((4-fluoro-1-(2-hydroxyethyl)-2,2-dioxido-1,3-dihydrobenzo[c]isothiazol-5-yl)amino)-1H-pyrazol-5-yl)cyclopentyl propylcarbamate]
189 | 5.4 | CC(C)NC(=O)O[C@H]1CC[C@@H](c2cc(Nc3ccc4c(c3F)CN(C3CC3)S4(=O)=O)n[nH]2)C1 (single isomer, unassigned) [Example 116b, cis-3-(3-((2-cyclopropyl-4-fluoro-1,1-dioxido-2,3-dihydrobenzo[d]isothiazol-5-yl)amino)-1H-pyrazol-5-yl)cyclopentyl isopropylcarbamate]
70 | 2.1 | CC(C)NC(=O)O[C@H]1CC[C@@H](c2cc(Nc3ccc4c(c3F)CS(=O)(=O)N4CC(F)(F)F)n[nH]2)C1 (single isomer, unassigned) [Example 263a, cis-3-(3-((4-fluoro-2,2-dioxido-1-(2,2,2-trifluoroethyl)-1,3-dihydrobenzo[c]isothiazol-5-yl)amino)-1H-pyrazol-5-yl)cyclopentyl isopropylcarbamate]
44 | 1.7 | CC(C)NC(=O)O[C@H]1CC[C@@H](c2cc(Nc3ccc4c(c3F)S(=O)(=O)NC4)n[nH]2)C1 (single isomer, unassigned) [Example 186b, cis-3-(3-((7-fluoro-1,1-dioxido-2,3-dihydrobenzo[d]isothiazol-6-yl)amino)-1H-pyrazol-5-yl)cyclopentyl isopropylcarbamate]
73 | 6.4 | [2H]C([2H])([2H])N1c2ccc(Nc3cc([C@@H]4CC[C@H](OC(=O)NC(C)C)C4)[nH]n3)c(F)c2CS1(=O)=O (single isomer, unassigned) [Example 267b, cis-3-(3-((4-fluoro-1-(methyl-d3)-2,2-dioxido-1,3-dihydrobenzo[c]isothiazol-5-yl)amino)-1H-pyrazol-5-yl)cyclopentyl isopropylcarbamate]
